Measurements: patent US10766914B2, “DNA alkylating agents” (OBI PHARMA, INC., priority 2015, dated 2020)

Columns and labels:
H460 cells = test: Proliferation assay in H460 cells (2 hr exposure, AlamarBlue); assay type: cell-based, human; settings: Homo sapiens, NCI-H460, 2 hrs exposure, wash, 70 hrs growth, read-out: IC 50 in proliferation assay in H460 cells
Procedure, shortened: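 H460 cells seeded at 4×10^3/well, grown 24 h, then exposed to compound for 2 h at 37 °C. Drug was washed off and cells were regrown 70 h in fresh medium. Viable cells were read by AlamarBlue, and IC50 was taken as the concentration giving 50% growth inhibition.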

[1] = test system: H460 non-small cell lung cancer xenograft tumor; test: Example 4-A antitumor efficacy, ectopic H460 NSCLC xenograft model; assay type: in vivo, female nude mice (nu/nu)
Excerpt: (§1) Specific pathogen-free homozygous female nude mice (nu/nu, Charles River Laboratories) were used. Mice were given food and water ad libitum and housed in microisolator cages. Four to six week old animals were identified by microchips (Locus Technology, Manchester, Md., USA) at the time of the experiments. All animal studies were approved by the Institutional Animal Care and Use Committee at Threshold Pharmaceuticals, Inc.
(§2) All cell lines were from the American Type Culture Collection (ATCC, Rockville, Md., USA).
(§3) Cells were mixed with Matrigel (50% with exception for 30% in the H460) and 0.2 ml per mouse were subcutaneously implanted to the flank area of the animals. When tumor size reached 100-150 250 mm3, mice were randomized into experimental or vehicle groups with 10 mice/group and treatment was started (Day 1). The tested compounds were formulated in 5% DMSO in D5W. The regimens employed in the examples include IP, QD×5/wk (5 days on, 2 days off) as one cycle, for a total of 2 cycles; IP, once; IP, weekly for total 3 weeks; and IV, weekly for 3 weeks. Tumor growth and body weight were measured twice a week. Tumor volume was calculated as (length×width2)/2. Drug efficacy was assessed as Tumor Growth Inhibition (TGI) and Tumor Growth Delay (TGD). TGI was defined as (1−ΔT/ΔC)×100, where ΔT/ΔC presented the ratio of the change in mean (or median, if variation within the group was relatively large) tumor volume of the treated group and of the control group. TGD was calculated as the extra days for the treated tumor to reach 500 mm3 or 1000 mm3 as compared to the control group. Animals were culled when individual tumor size reached over 2000 mm3 or mean tumor volume exceeded 1000 mm3 in the group. Data are expressed as the mean±SEM. One-way analysis of variance with Dunnett post comparison test (GraphPad Prism 4) or two-tailed student's t-test were used for analysis. A P level <0.05 was considered statistically significant.
Compounds provided herein were tested in vivo human tumor xenograft models and compared to standard chemotherapeutic agents such as gemcitabine, nab-paclitaxel. […] The compound was dosed as follows: daily IP dosing: 5 doses then 2 days off then 5 more doses starting at 100 mm^3 tumors on day 1 (10 animals per group median tumor volume). It is contemplated that in some embodiments, the compounds provided herein are activated by human and not by mouse enzymes. The antitumor effects and the safety of administration are graphically illustrated in FIGS. 3-20 below.

[2] = Example 4-A body weight change, H460 xenograft study; assay type: in vivo, female nude mice (nu/nu); settings: 40 mg/kg ip QD × 5/wk × 2 wks
Protocol: as §3, with “A P level <0.05 was considered statistically significant.” left out

[3] = test system: A 549 non-small cell lung xenograft; test: Example 4-B antitumor efficacy, ectopic A549 NSCLC xenograft model; assay type: in vivo, female nude mice (nu/nu)
Excerpt: as §1, §2, §3
The dosing was as follows. Daily IP dosing: 5 doses then 2 days off then 5 more doses starting at 110 mm^3 tumors on day 1 (10 animals per group average tumor volume).
Doses were selected by first doing a toxicity test in CD1 mice as described above. The compounds were tested against Thio-tepa.

[4] = Example 4-B body weight change, A549 xenograft study; assay type: in vivo, female nude mice (nu/nu)
Protocol: as §3
Antitumor effects of compounds provided herein were determined on A 549 non-small cell lung xenograft model in comparison with a chemotherapy agent, thiotepa. The dosing was as follows. Daily IP dosing: 5 doses then 2 days off then 5 more doses starting at 110 mm^3 tumors on day 1 (10 animals per group average tumor volume). The antitumor effects and the safety of administration are graphically illustrated below.

[5] = test system: A375 melanoma human tumor xenograft; test: Example 4-C antitumor efficacy, ectopic A375 melanoma xenograft model; assay type: in vivo, female nude mice (nu/nu); settings: qd × 5 × 2, ip
Excerpt: as §1, §2, §3
his study employed an A375 melanoma human tumor xenograft model and various compounds provided herein were compared to thiotepa and the approved anti melanoma drug, nab-Paclitaxel.

[6] = Example 4-C body weight change, A375 xenograft study; assay type: in vivo, female nude mice (nu/nu); settings: 40 mpk, qd × 5 × 2, ip
Protocol: as §3
his study employed an A375 melanoma human tumor xenograft model and various compounds provided herein were compared to thiotepa and the approved anti melanoma drug, nab-Paclitaxel. The antitumor effects and the safety of administration are graphically illustrated below.

[7] = test system: renal cell carcinoma 786-O xenograft; test: Example 4-E antitumor efficacy, renal cell carcinoma 786-O xenograft model; assay type: in vivo, female nude mice (nu/nu); settings: 40 mpk, qd × 5/wk × 2
Excerpt: as §1, §2
Cells were mixed with Matrigel (50% with exception for 30% in the H460) and 0.2 ml per mouse were subcutaneously implanted to the flank area of the animals. When tumor size reached 100-150 250 mm3, mice were randomized into experimental or vehicle groups with 10 mice/group and treatment was started (Day 1). The tested compounds were formulated in 5% DMSO in D5W. […] Tumor growth and body weight were measured twice a week. Tumor volume was calculated as (length×width2)/2. Drug efficacy was assessed as Tumor Growth Inhibition (TGI) and Tumor Growth Delay (TGD). […] TGD was calculated as the extra days for the treated tumor to reach 500 mm3 or 1000 mm3 as compared to the control group. […] Data are expressed as the mean±SEM. […]

[8] = Example 4-E body weight change, 786-O xenograft study; assay type: in vivo, female nude mice (nu/nu); settings: 40 mpk, qd × 5/wk × 2
Protocol: as §3, with “The regimens employed in the examples include IP, QD×5/wk (5 days on, 2 days off) as one cycle, for a total of 2 cycles; IP, once; IP, weekly for total 3 weeks; and IV, weekly for 3 weeks.” left out
The compound TH-2768 was tested in a renal cell carcinoma 786-O model. The compound was dosed as follows. […]

H460 NSCLC xenograft [9] = test: Example 4-F antitumor efficacy, ectopic H460 NSCLC xenograft model; assay type: in vivo, female nude mice (nu/nu); settings: ip, once
Excerpt: as §1, §2, §3
(§4) The compounds TH-2953 and TH-3040 were tested in a H460 model. The compounds were dosed as follows. A dose-dependent TH-2953 was given IP once, from 6.25 to 100 mg/kg, comparing with daily IP: 5 doses then 2 days off then 5 more doses starting at 100 mm^3 tumors on day 1 (10 animals per group average tumor volume). TH-3040 was administered IP once. The antitumor effects and the safety of administration are graphically illustrated below.

[10] = Example 4-F body weight change, H460 xenograft study; assay type: in vivo, female nude mice (nu/nu); settings: ip, once
Protocol: as §3, §4

H460 NSCLC xenograft [11] = test: Example 4-G antitumor efficacy, ectopic H460 NSCLC xenograft model; assay type: in vivo, female nude mice (nu/nu); settings: ip, Q7D × 3
Excerpt: as §1, §2, §3
(§5) The compounds TH-3040 and TH-3045 were tested in a H460 model. The compounds were dosed as follows. A dose-dependent TH-3040 or TH-3045 was given IP weekly for 3 weeks, from 5 to 45 mg/kg starting at 100 mm^3 tumors on day 1 (10 animals per group average tumor volume). The antitumor effects and the safety of administration are graphically illustrated below.

[12] = Example 4-G body weight change, H460 xenograft study; assay type: in vivo, female nude mice (nu/nu); settings: ip, Q7D × 3
Protocol: as §3, §5

H460 NSCLC xenograft [13] = test: Example 4-H antitumor efficacy, ectopic H460 NSCLC xenograft model; assay type: in vivo, female nude mice (nu/nu); settings: ip, Q7D × 3
Excerpt: as §1, §2, §3
The compound TH-3040 was tested in a H460 model. The compound was dosed as follows: 5 or 1.5 mg/kg, IP, weekly for 3 weeks at 100 mm^3 tumors on day 1 (10 animals per group average tumor volume), comparing with nab-Paclitaxel. The antitumor effects and the safety of administration are graphically illustrated below.

[14] = Example 4-H body weight change, H460 xenograft study; assay type: in vivo, female nude mice (nu/nu); settings: ip, Q7D × 3
Protocol: as §3, with “A P level <0.05 was considered statistically significant.” left out

AKR1C3 = target: T1, AKR1C3 (Homo sapiens, UniProt P42330); settings: background statement; cited from earlier work
T1 sequence (P42330 1-323): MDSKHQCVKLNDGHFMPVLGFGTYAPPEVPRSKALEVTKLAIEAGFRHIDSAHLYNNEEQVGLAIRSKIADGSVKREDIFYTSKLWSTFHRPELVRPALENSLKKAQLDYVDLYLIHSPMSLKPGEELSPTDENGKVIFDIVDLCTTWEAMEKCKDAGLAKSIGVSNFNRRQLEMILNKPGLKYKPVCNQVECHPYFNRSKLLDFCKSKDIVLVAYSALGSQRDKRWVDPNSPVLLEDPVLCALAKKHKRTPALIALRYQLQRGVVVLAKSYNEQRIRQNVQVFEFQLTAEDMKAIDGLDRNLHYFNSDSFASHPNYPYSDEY

[15] = background statement; cited from earlier work
[16] = 40 mg/kg ip QD × 5/wk × 2 wks, H460

CC(OP(=O)(N1CC1)N1CC1)c1ccc([N+](=O)[O-])c(Oc2ccccc2)c1 (stereo not drawn) [Compound 2768]
IC50 (H460 cells): 40 nM | TGD 500 [1, 16]: 56 days | TGD 1000 [1, 16]: 62 days | TGI [1, 16]: 104.1% | antitumor effect as a monotherapy ([1]; H460 study, versus gemcitabine): superior to the effect of gemcitabine | Max. BW loss % [2]: 4.0% | TGD 500 ([3]; 40 mg/kg ip QD × 5/wk × 2 wks): >72 days | TGI ([3]; 40 mg/kg ip QD × 5/wk × 2 wks): 100.6% | TGD 500 ([3]; 80 mg/kg ip QD × 5/wk × 2 wks): >72 days | TGI ([3]; 80 mg/kg ip QD × 5/wk × 2 wks): 104.4% | Max. BW loss % ([4]; 40 mg/kg ip QD × 5/wk × 2 wks): 0.0% | Max. BW loss % ([4]; 80 mg/kg ip QD × 5/wk × 2 wks): 4.8% | TGD 500 ([5]; 40 mpk): 7 days | TGD 1000 ([5]; 40 mpk): 7 days | inhibition in vivo at 40 mg/kg ([5]; Mus musculus, A-375, 40 mpk, read-out: TGI): 36.7% | Max. BW loss % [6]: 0% | TGI ([7]; ip): 73.0% | Max. BW loss % ([8]; ip): 0.0%

C[C@H](OP(=O)(N1CC1)N1CC1)c1ccc([N+](=O)[O-])c(Oc2ccc(-c3ccccc3)cc2)c1 [Compound 3040]
IC50 (H460 cells): 4 nM | TGD 500 (H460 NSCLC xenograft [9]; 25 mpk): 17 days | TGD 1000 (H460 NSCLC xenograft [9]; 25 mpk): 17 days | TGI (H460 NSCLC xenograft [9]; 25 mpk): 80.5% | TGD 500 (H460 NSCLC xenograft [9]; 100 mpk): 20 days | TGD 1000 (H460 NSCLC xenograft [9]; 100 mpk): 23 days | TGI (H460 NSCLC xenograft [9]; 100 mpk): 93.7% | Max. BW loss % ([10]; 25 mpk): 1.3% | Max. BW loss % ([10]; 100 mpk): 0.0% | TGD 500 (H460 NSCLC xenograft [11]; 5 mpk): 40 days | TGI (H460 NSCLC xenograft [11]; 5 mpk): 103.5% | TGD 500 (H460 NSCLC xenograft [11]; 15 mpk): 60 days | TGI (H460 NSCLC xenograft [11]; 15 mpk): 104.3% | TGD 500 (H460 NSCLC xenograft [11]; 45 mpk): 66 days | TGI (H460 NSCLC xenograft [11]; 45 mpk): 106.4% | Max BW loss ([12]; 5 mpk): 2.5% | Max BW loss ([12]; 15 mpk): 1.0% | Max BW loss ([12]; 45 mpk): 0.0% | TGD500, Days (vs. vehicle) (H460 NSCLC xenograft [13]; 1.5 mg/kg): 15 days | TGD1000, Days (vs. vehicle) (H460 NSCLC xenograft [13]; 1.5 mg/kg): 19 days | TGI (H460 NSCLC xenograft [13]; 1.5 mg/kg): 80.6% | TGD500, Days (vs. vehicle) (H460 NSCLC xenograft [13]; 5 mg/kg): 36 days | TGD1000, Days (vs. vehicle) (H460 NSCLC xenograft [13]; 5 mg/kg): 41 days | TGI (H460 NSCLC xenograft [13]; 5 mg/kg): 101.9% | Max. BW loss % ([14]; 1.5 mg/kg): 7.2% | Max. BW loss % ([14]; 5 mg/kg): 5.2%

CS(=O)(=O)OCCN(CCBr)c1c(C(=O)NCCOP(=O)(O)O)cc([N+](=O)[O-])cc1[N+](=O)[O-] [PR 104]
substrate for AKR1C3 (AKR1C3): weak substrate | efficacy in clinical trials [15]: ineffective

CCN(CC)CCNC(=O)c1c(C)[nH]c(/C=C2\C(=O)Nc3ccc(F)cc32)c1C [Sunitinib, sunitinib, reference compound]
TGI ([7]; po): 67.8% | Max. BW loss % ([8]; po): 0.3%
